Measurements as given in patent publication US10208059B2, “Heterocyclic modulators of HIF activity for treatment of disease” (Board of Regents, University of Texas System, priority 2012, dated 2019).

system: 293T-HRE-GFP-luc cells; experiment: Cell-based reporter assay for IC50 determinations; details: hypoxia 6 hrs (1% O2), luminescence, read-out: IC50 Classification
In short: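 Cells carrying an HRE-driven GFP-luciferase reporter, seeded at 12,000/well and held overnight, then given 1:3 serial compound dilutions (DMSO, further diluted 1:50 in medium). After 30 min in normoxia, plates held 6 h in hypoxia (1% O2, 37 °C); luciferase luminescence read, IC50 by four-parameter logistic fit.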

First: Cc1nc(-c2nc(-c3ccc(OC(F)(F)F)cc3)no2)nn1Cc1ccn(CC(C)C)c(=O)c1 [Example 76a, 4-[(5-Methyl-3-{3-[4-(trifluoromethoxy)phenyl]-1,2,4-oxadiazol-5-yl}-1H-1,2,4-triazol-1-yl)methyl]-1-(2-methylpropyl)-1,2-dihydropyridin-2-one]
Second: Cc1nc(-c2nc(-c3ccc(OC(F)(F)F)cc3)no2)nn1Cc1ccc(=O)n(CC(C)C)c1 [Example 77a, 5-[(5-Methyl-3-{3-[4-(trifluoromethoxy)phenyl]-1,2,4-oxadiazol-5-yl}-1H-1,2,4-triazol-1-yl)methyl]-1-(2-methylpropyl)-1,2-dihydropyridin-2-one]
The IC50 of the first is higher: 100 to 1000 nM for the first, less than 100 nM for the second.

`Cc1nc(-c2nc(-c3ccc(OC(F)(F)F)cc3)no2)nn1Cc1ccnc(OCC(C)C)c1` [Example 76b, 4-[(5-Methyl-3-{3-[4-(trifluoromethoxy)phenyl]-1,2,4-oxadiazol-5-yl}-1H-1,2,4-triazol-1-yl)methyl]-2-(2-methylpropoxy)pyridine] and `Cc1nc(-c2nc(-c3ccc(OC(F)(F)F)cc3)no2)nn1Cc1ccc(OCC(C)C)nc1` [Example 77b, 5-[(5-Methyl-3-{3-[4-(trifluoromethoxy)phenyl]-1,2,4-oxadiazol-5-yl}-1H-1,2,4-triazol-1-yl)methyl]-2-(2-methylpropoxy)pyridine] fall in the same range of IC50: 100 to 1000 nM for the first, 100 to 1000 nM for the second.

First: Cc1nc(-c2nc(-c3ccc(OC(F)(F)F)cc3)no2)nn1Cc1cccc(N)c1 [Example 78, 3-[(5-Methyl-3-{3-[4-(trifluoromethoxy)phenyl]-1,2,4-oxadiazol-5-yl}-1H-1,2,4-triazol-1-yl)methyl]aniline]
Second: C=Cc1cccc(Cn2nc(-c3nc(-c4ccc(OC(F)(F)F)cc4)no3)nc2C)c1 [Example 84, 5-{1-[(3-Ethenylphenyl)methyl]-5-methyl-1H-1,2,4-triazol-3-yl}-3-[4-(trifluoromethoxy)phenyl]-1,2,4-oxadiazole]
The IC50 of the first is lower: less than 100 nM for the first, 100 to 1000 nM for the second. The first is the more potent here.

`Cc1nc(-c2nc(-c3ccc(OC(F)(F)F)cc3)no2)nn1Cc1cccc(S(=O)(=O)N2CCN(C)CC2)c1` [Example 79, 1-Methyl-4-{3-[(5-methyl-3-{3-[4-(trifluoromethoxy)phenyl]-1,2,4-oxadiazol-5-yl}-1H-1,2,4-triazol-1-yl)methyl]benzenesulfonyl}piperazine] and `Cc1nc(-c2nc(-c3ccc(OC(F)(F)F)cc3)no2)nn1Cc1cccc(N2CCN(S(C)(=O)=O)CC2)c1` [Example 82, 1-Methanesulfonyl-4-{3-[(5-methyl-3-{3-[4-(trifluoromethoxy)phenyl]-1,2,4-oxadiazol-5-yl}-1H-1,2,4-triazol-1-yl)methyl]phenyl}piperazine] cannot be ordered by IC50: less than 100 nM for the first, less than 100 nM for the second.

`Cc1nc(-c2nc(-c3ccc(OC(F)(F)F)cc3)no2)nn1Cc1cccc(N2CCNCC2)c1` [Example 81, 1-{3-[(5-Methyl-3-{3-[4-(trifluoromethoxy)phenyl]-1,2,4-oxadiazol-5-yl}-1H-1,2,4-triazol-1-yl)methyl]phenyl}piperazine] and `Cc1nc(-c2nc(-c3ccc(OC(F)(F)F)cc3)no2)nn1Cc1cccc(N2CCN(C(=O)CO)CC2)c1` [Example 83, 2-Hydroxy-1-(4-{3-[(5-methyl-3-{3-[4-(trifluoromethoxy)phenyl]-1,2,4-oxadiazol-5-yl}-1H-1,2,4-triazol-1-yl)methyl]phenyl}piperazin-1-yl)ethan-1-one] cannot be ordered by IC50: less than 100 nM for the first, less than 100 nM for the second.

`Cc1nc(-c2nc(-c3ccc(OC(F)(F)F)cc3)no2)nn1Cc1cccc(C(O)CO)c1` (stereo not drawn) [Example 85, 1-{3-[(5-Methyl-3-{3-[4-(trifluoromethoxy)phenyl]-1,2,4-oxadiazol-5-yl}-1H-1,2,4-triazol-1-yl)methyl]phenyl}ethane-1,2-diol] and `Cc1nc(-c2nc(-c3ccc(OC(F)(F)F)cc3)no2)nn1Cc1cccc(OCC(O)CO)c1` (stereo not drawn) [Example 86, 3-{3-[(5-methyl-3-{3-[4-(trifluoromethoxy)phenyl]-1,2,4-oxadiazol-5-yl}-1H-1,2,4-triazol-1-yl)methyl]phenoxy}propane-1,2-diol] cannot be ordered by IC50: less than 100 nM for the first, less than 100 nM for the second.
